Source: patent publication US10730866B2, “Indole derivatives and use thereof” (Purdue Pharma L.P., priority 2014, dated 2020)

Assays:
human Nav1.7 = human Nav1.7 (Homo sapiens (Human), UniProt Q15858); assay: FLIPR or FLIPR TETRA sodium dye assay for sodium channel blocking activity; assay type: cell-based; conditions: recombinant HEK293 cells expressing human Nav1.7
Protocol: In vitro assays were performed in a recombinant cell line expressing cDNA encoding the alpha subunit (Nav1.7, SCN9a, PN1, NE) of human Nav1.7 (Accession No. NM_002977). The cell line was provided by investigators at Yale University (Cummins et al, J. Neurosci. 18(23): 9607-9619 (1998)). For dominant selection of the Nav1.7-expressing clones, the expression plasmid co-expressed the neomycin resistance gene. The cell line was constructed in the human embryonic kidney cell line, HEK293, under the influence of the CMV […] promoter, and stable clones were selected using limiting dilution cloning and antibiotic selection using the neomycin analogue, G418. Recombinant beta and gamma subunits were not introduced into this cell line. Additional cell lines expressing recombinant Nav1.7 cloned from other species can also be used, alone or in combination with various beta subunits, gamma subunits or chaperones.
Unless otherwise noted, cell culture reagents were purchased from Mediatech of Herndon, Va. The recombinant Nav1.7/HEK293 cells were routinely cultured in growth medium consisting of Dulbecco's […] essential medium containing 10% fetal bovine serum (FBS, Hyclone, Thermo Fisher Scientific, Logan, Utah), 100 U/mL penicillin, 100 μg/mL streptomycin, 2-4 mM L-glutamine, and […] G418. For natural, non-recombinant cell lines, the selective antibiotic was omitted, and additional media formulations can be applied as needed.
The final buffer consisted of 20 mM Hepes, pH 7.3, 1.261 mM CaCl2, 0.493 mM MgCl2, 0.407 mM Mg(SO)4, 5.33 mM KCl, 0.441 mM KH2PO4, 137 mM NaCl, 0.336 mM Na2HPO4 and […] D-glucose (Hanks et al., Proc. Soc. Exp. Biol. Med. 71:196 (1949)), and the simple formulation was typically the basic buffer throughout the assay (i.e., all wash and addition steps).
The fluorescence indicator used in the primary fluorescence assay was the cell permeant version of CoroNa™ Green (Invitrogen, Molecular Probes, Eugene, Oreg.), a dye that emits light in the fluorescence range (Harootunian et al., J. Biol. Chem. 264(32):19458-19467 (1989)). The intensity of this emission, but not the wavelength range, is increased when the dye is exposed to Na^+ ions, which it can bind with partial selectivity. Cells expressing Nav1.7 or other sodium channels were loaded with the CoroNa™ Green dye immediately in advance of the fluorescence assay, and then, after agonist stimulation, the mobilization of Na^+ ions was detected as the Na^+ ions flowed from the extracellular fluid into the cytoplasm through the activated sodium channel pores. The dye was stored in the dark as a lyophilized powder, and then an aliquot was dissolved immediately before the cell loading procedure, according to the instructions of the manufacturer, to a stock concentration of 10 mM in DMSO. It was then diluted in the assay buffer to a 4× concentrated working solution, so that the final concentration of dye in the cell loading buffer was 5 μM.
In the fluorescence assays, two agonists were used in combination, namely 1) veratridine; and 2) the venom from the yellow scorpion, Leiurus quinquestriatus hebraeus. Veratridine is an alkaloid small molecule that facilitates the capture of channel openings by inhibiting inactivation, and the scorpion venom is a natural preparation that includes peptide toxins selective for different subsets of voltage-gated sodium channels. These scorpion toxins inhibit the fast inactivation of their cognate target channels. Stock solutions of the agonists were prepared to 40 mM in DMSO (veratridine) and 1 mg/mL in dH2O (scorpion venom), and then diluted to make a 4× or 2× stock (depending on the particular assay) in assay buffer, the final concentration being 100 μM (veratridine) and 10 μg/mL (scorpion venom). Both of the agonists were purchased from Sigma Aldrich, St. Louis, Mo.
Test compounds were dissolved in DMSO to yield 10 mM stock solutions. […]

hNav1.7 = hNav1.7 (Homo sapiens (Human), UniProt Q15858); assay: Electrophysiology (EP) assay, whole-cell patch clamp; assay type: cell-based; conditions: hNav1.7 expressing HEK-293 cells; affinity for inactivated state; read-out: Nav1.7 Activity (μM) EP assay Ki
Protocol: The hNav1.7 expressing HEK-293 cells are plated on 35 mm culture dishes pre-coated with poly-D-lysine in standard DMEM culture media (Mediatech, Inc., Herndon, Va.) and incubated in a 5% CO2 incubator at 37° C. Cultured cells are used approximately 12-48 hours after plating.
The hNav1.7 expressing HEK-293 cells are plated on tissue culture flasks in standard DMEM culture media (Mediatech, Inc.) and incubated in a 5% CO2 incubator at 37° C. Cultured cells are used approximately 12-48 hours after plating.
On the day of experimentation, the 35 mm dish is placed on the stage of an inverted microscope equipped with a perfusion system that continuously perfuses the culture dish with fresh recording media. A gravity driven superfusion system is used to apply test solutions directly to the cell under evaluation. This “shooter” system consists of an array of glass pipettes connected to a motorized horizontal translator. The outlet of the shooter is positioned approximately 100 μm from the cell of interest.
Whole cell currents are recorded using the whole-cell patch clamp configuration using an Axopatch 200B amplifier (Axon Instruments, Foster City Calif.), 1322A A/D converter (Axon Instruments) and pClamp software (v. 8; Axon Instruments) and stored on a personal computer. Gigaseals are formed and the whole-cell configuration is established in voltage clamp mode, and membrane currents generated by hNav1.7 channels are recorded. Borosilicate glass pipettes with resistance values between 1.5 and 2.0 MΩ when filled with pipette solution are used and series resistance (<5 MΩ) is compensated by 75-80%. Signals are sampled at 50 kHz and low pass filtered at 3 kHz.
Whole cell currents are recorded using the whole-cell patch clamp configuration using an Patchliner (Nanion Technologies, Munich Germany), EPC 10 quadro amplifiers (HEKA, Bellmore, N.Y.) and PatchControl HT 10905 (Nanion Technologies) and PatchMaster v2x73 software (HEKA) and stored on a personal computer. Gigaseals are formed and the whole-cell configuration is established in voltage clamp mode, and membrane currents generated by hNav1.7 are recorded. NPC-16 chips have resistance values between 1.0 and 2.0 MΩ when filled with pipette solution and series resistance (<5 MΩ). Signals are sampled at 25 kHz and low pass filtered at 3 kHz.
After establishing the whole-cell configuration in voltage clamp mode, voltage protocols are run to establish the 1) test potential (Vmax), 2) holding potential (Vh), and 3) the conditioning potential for each cell.
After establishing the whole-cell configuration in voltage clamp mode, a standard I-V protocol is run to determine the potential at which the maximal current (Imax) is elicited. This potential is the test potential (Vt). To determine a conditioning potential at which 100% of channels are in the inactivated state, a standard steady-state inactivation (SSIN) protocol is run using a series of fifteen 100 ms-long depolarizing prepulses, incrementing in 10 mV steps, immediately followed by a 5 ms testing pulse to Vmax. This protocol also permits determination of the holding potential at which all channels are in the resting state.
For compounds causing significant retardation of recovery from inactivation, an estimate of the affinity for the inactivated state of the channel (Ki) is generated using the following protocol. From the negative, no residual inactivation, holding potential, the cell is depolarized to the conditioning voltage for 2-5 seconds, returned to the negative holding potential for 10-20 ms to relieve fast inactivation and then depolarized to the test potential for ˜15 ms. This voltage protocol is repeated every 10-15 seconds, first to establish a baseline in the absence of the test compound, then in the presence of the test compound.
After a stable baseline is established, the test compound is applied and block of the current elicited by the test pulse assessed. […]

human Nav1.7, sequence (Q15858 other isoform, or with tags, fused parts or gaps): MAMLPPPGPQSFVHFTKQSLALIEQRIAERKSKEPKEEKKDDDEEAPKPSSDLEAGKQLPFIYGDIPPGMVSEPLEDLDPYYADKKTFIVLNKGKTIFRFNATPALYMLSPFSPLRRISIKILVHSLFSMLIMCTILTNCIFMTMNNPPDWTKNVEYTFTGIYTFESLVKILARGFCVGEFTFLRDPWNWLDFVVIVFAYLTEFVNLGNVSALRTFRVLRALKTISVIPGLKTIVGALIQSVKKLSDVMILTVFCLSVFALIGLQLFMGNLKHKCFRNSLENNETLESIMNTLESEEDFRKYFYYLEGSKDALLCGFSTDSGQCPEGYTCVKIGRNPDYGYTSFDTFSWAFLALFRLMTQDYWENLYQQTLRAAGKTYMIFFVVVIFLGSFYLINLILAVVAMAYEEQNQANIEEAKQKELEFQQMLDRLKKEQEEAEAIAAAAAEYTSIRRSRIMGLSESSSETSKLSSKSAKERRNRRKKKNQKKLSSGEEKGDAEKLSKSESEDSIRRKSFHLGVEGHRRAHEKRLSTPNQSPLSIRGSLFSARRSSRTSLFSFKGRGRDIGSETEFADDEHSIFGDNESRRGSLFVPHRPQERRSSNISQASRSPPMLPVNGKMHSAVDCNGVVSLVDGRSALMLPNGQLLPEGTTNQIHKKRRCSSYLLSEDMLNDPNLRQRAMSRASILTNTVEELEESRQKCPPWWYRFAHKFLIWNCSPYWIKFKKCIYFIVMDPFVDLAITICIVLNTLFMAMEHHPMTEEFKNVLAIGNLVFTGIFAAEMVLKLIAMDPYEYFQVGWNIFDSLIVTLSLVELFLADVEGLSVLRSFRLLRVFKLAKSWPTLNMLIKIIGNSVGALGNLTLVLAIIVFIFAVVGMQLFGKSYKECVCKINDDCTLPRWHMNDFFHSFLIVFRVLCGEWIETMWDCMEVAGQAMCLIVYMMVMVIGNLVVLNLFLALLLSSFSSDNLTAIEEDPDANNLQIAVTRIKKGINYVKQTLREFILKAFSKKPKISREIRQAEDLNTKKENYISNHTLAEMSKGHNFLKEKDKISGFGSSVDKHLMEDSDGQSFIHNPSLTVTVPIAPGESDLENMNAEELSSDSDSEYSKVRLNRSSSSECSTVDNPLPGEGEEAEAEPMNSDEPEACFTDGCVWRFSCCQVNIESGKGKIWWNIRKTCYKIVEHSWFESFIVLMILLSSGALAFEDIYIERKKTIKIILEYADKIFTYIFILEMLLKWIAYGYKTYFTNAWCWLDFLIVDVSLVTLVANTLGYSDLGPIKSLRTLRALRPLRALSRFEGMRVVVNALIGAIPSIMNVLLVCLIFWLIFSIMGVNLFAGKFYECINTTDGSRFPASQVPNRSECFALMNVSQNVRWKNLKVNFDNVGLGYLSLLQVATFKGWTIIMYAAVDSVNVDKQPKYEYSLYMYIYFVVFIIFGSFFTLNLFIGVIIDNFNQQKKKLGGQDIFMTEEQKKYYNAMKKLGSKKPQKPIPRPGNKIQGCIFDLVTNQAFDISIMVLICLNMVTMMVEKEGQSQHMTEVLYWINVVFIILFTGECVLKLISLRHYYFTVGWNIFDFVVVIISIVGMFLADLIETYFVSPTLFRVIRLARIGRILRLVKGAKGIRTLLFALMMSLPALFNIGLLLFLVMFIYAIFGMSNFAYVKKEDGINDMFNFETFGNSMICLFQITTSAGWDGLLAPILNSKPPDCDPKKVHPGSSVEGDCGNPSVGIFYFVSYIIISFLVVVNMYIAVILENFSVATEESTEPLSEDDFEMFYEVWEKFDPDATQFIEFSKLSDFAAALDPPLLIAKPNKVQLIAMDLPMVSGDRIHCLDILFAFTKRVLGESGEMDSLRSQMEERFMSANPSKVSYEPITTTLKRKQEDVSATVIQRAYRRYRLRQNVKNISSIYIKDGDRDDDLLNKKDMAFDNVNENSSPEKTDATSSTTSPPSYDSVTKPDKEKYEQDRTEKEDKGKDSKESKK
hNav1.7, sequence (Q15858 other isoform, or with tags, fused parts or gaps): as above

NC(=O)c1cc(-c2ccc3c(ccn3Cc3ccc(C(F)(F)F)cc3)c2)cc([C@H](O)CO)n1 [Compound 123, (S)-6-(1,2-dihydroxyethyl)-4-(1-(4-(trifluoromethyl)benzyl)-1H-indol-5-yl)picolinamide]
IC50 (human Nav1.7): 1.52 ± 0.152 µM
Ki (hNav1.7): 1.02 ± 0.368 µM

NC(=O)c1cccc(-c2ccc3c(cnn3Cc3ccc(C(F)(F)F)cc3)c2)n1 [Compound 105, 6-(1-(4-(trifluoromethyl)benzyl)-1H-indazol-5-yl)picolinamide]
IC50 (human Nav1.7): 0.897 ± 0.114 µM
Ki (hNav1.7): 0.7 ± 0.049 µM

CC(C)Cn1ncc2cc(-c3cccc([C@H](O)[C@@H](O)C(N)=O)n3)ccc21 [Compound 155, (2R,3S)-2,3-dihydroxy-3-(6-(1-isobutyl-1H-indazol-5-yl)pyridin-2-yl)propanamide]
IC50 (human Nav1.7): > 20 µM
Ki (hNav1.7): 10.6 ± 3.9 µM

NC(=O)c1cc([C@@H](O)CO)cc(-c2ccc3c(ccn3Cc3ccc(C(F)(F)F)cc3)c2)n1 [Compound 120, (R)-4-(1,2-dihydroxyethyl)-6-(1-(4-(trifluoromethyl)benzyl)-1H-indol-5-yl)picolinamide]
IC50 (human Nav1.7): 1.91 ± 0.458 µM
Ki (hNav1.7): 2.03 ± 0.608 µM

CC(C)Cn1ccc2cc(-c3cccc([C@H](O)[C@@H](O)C(N)=O)n3)ccc21 [Compound 150, (2R,3S)-2,3-dihydroxy-3-(6-(1-isobutyl-1H-indol-5-yl)pyridin-2-yl)propanamide]
IC50 (human Nav1.7): 1.38 ± 0.146 µM
Ki (hNav1.7): 0.678 ± 0.172 µM

NC(=O)c1cc(N[C@H]2CCNC2=O)nc(-c2ccc3ncn(-c4ccc(C(F)(F)F)cc4)c3c2)n1 [Compound 44, (S)-6-((2-oxopyrrolidin-3-yl)amino)-2-(1-(4-(trifluoromethyl)phenyl)-1H-benzo[d]imidazol-6-yl)pyrimidine-4-carboxamide]
IC50 (human Nav1.7): 1.72 ± 0.156 µM
Ki (hNav1.7): 1.54 ± 0.446 µM

OC[C@@H](O)c1cccc(-c2ccc3c(cnn3Cc3ccc(C(F)(F)F)cc3)c2)n1 [Compound 107, (S)-1-(6-(1-(4-(trifluoromethyl)benzyl)-1H-indazol-5-yl)pyridin-2-yl)ethane-1,2-diol]
IC50 (human Nav1.7): 1.09 ± 0.077 µM
Ki (hNav1.7): 0.534 ± 0.032 µM

CC(C)Cn1ccc2cc(-c3cccc(S(=O)(=O)Nc4ncns4)n3)ccc21 [Compound 41, 6-(1-isobutyl-1H-indol-5-yl)-N-(1,2,4-thiadiazol-5-yl)pyridine-2-sulfonamide]
IC50 (human Nav1.7): 0.514 ± 0.054 µM
Ki (hNav1.7): 0.322 ± 0.113 µM

O=C(Nc1ccc(C(F)(F)F)cc1)c1cc(N[C@H]2CCNC2=O)nc(-c2ccc3[nH]ccc3c2)n1 [Compound 78, (S)-2-(1H-indol-5-yl)-6-((2-oxopyrrolidin-3-yl)amino)-N-(4-(trifluoromethyl)phenyl)pyrimidine-4-carboxamide]
IC50 (human Nav1.7): 1.83 ± 0.459 µM
Ki (hNav1.7): 1.28 ± 0.48 µM

OC[C@@H](O)c1cccc(-c2cnc3c(ccn3Cc3ccc(C(F)(F)F)cc3)c2)n1 [Compound 106, (S)-1-(6-(1-(4-(trifluoromethyl)benzyl)-1H-pyrrolo[2,3-b]pyridin-5-yl)pyridin-2-yl)ethane-1,2-diol]
IC50 (human Nav1.7): 1.33 ± 0.164 µM
Ki (hNav1.7): 0.286 ± 0.027 µM

NC(=O)[C@H](O)[C@@H](O)c1cccc(-c2ccc3c(ccn3CC3CC3)c2)n1 [Compound 154, (2R,3S)-3-(6-(1-(cyclopropylmethyl)-1H-indol-5-yl)pyridin-2-yl)-2,3-dihydroxypropanamide]
IC50 (human Nav1.7): 10 to 20 µM
Ki (hNav1.7): 27.2 ± 8.2 µM
